Data: patent US9254262B2, “Dosage and formulation” (Almirall, S.A., priority 2008, dated 2016)

Tested on: Patients with moderate to severe stable COPD
Test: 4-week randomized once-daily inhaled treatment in COPD patients, spirometry (FEV1) and tolerability
Type: in vivo, human
Method: Methods: Patients with moderate to severe stable COPD were randomized to receive double-blind, once-daily treatment with aclidinium (25, 50, 100, 200, or 400 μg), placebo, or open-label tiotropium 18 μg for 4 weeks. Spirometric measurements were performed at 22-24 h after the first dose and then at weekly intervals, and from 0.5-6 h post-administration on Day 1 and at Week 4 (Day 29).
Results: The ITT population included 460 patients.
Mean change from baseline in trough FEV1 on Day 29

[1] = 25-400 μg once daily for 4 weeks, COPD patients

## C[N+]1(C)[C@@H]2C[C@@H](OC(=O)C(O)(c3cccs3)c3cccs3)C[C@H]1[C@@H]1O[C@@H]12 [Tiotropium, reference compound]
Tiotropium 18 μg once daily, open-label, 4 weeks, COPD patients, *p < 0.05 vs placebo
  Mean change from baseline in trough FEV1 on Day 29 (Mean Δ): 161* ml

## O=C(O[C@H]1C[N+]2(CCCOc3ccccc3)CCC1CC2)C(O)(c1cccs1)c1cccs1.[Br-] [Aclidinium, 3(R)-(2-hydroxy-2,2-dithien-2-ylacetoxy)-1-(3-phenoxypropyl)-1-azoniabicyclo[2.2.2]octane bromide]
[1]
  Effect on ECG, laboratory parameters or adverse events: no dose-dependent effect
  Tolerability: well tolerated
25-400 μg once daily, ITT population 460 patients
  Effect on trough FEV1 on Day 29 (dose dependence): dose-dependently increased
Aclidinium 200 and 400 μg
  Bronchodilatory effect compared with open-label tiotropium 18 μg: comparable bronchodilatory effects
All doses
  Bronchodilatory effect during the first 6 h post-dose on Day 29 versus Day 1: comparable to that on Day 1
once-daily dosing, COPD patients
  Duration of bronchodilation: sustained bronchodilation over 24 h
